Experiments:
Caco-2 cell model = system: Caco-2 cell model; set-up: method as in PMID 23885956; conditions: within 24h; cited from earlier work
[1] = Cytotoxicity by flow cytometry with propidium iodide; type: cell-based; conditions: human
Excerpt: To study the effects of procyanidins on PRL-1 and PRL-3 in cells, the trimeric catechin (procyanidin C2, 9) was chosen as a representative example due to its strong inhibitor activity in vitro toward both PRL-s and its smaller size compared to the higher oligomers, which could influence cell permeability. HEK293 cells stably overexpressing PRL-1 and PRL-3 were chosen as model cell line. As a control cell line, HEK293 cells transfected with the empty vector were utilized (see the Experimental Procedures). To avoid false positive results due to cell death, first cell viability was studied in a concentration dependent manner by using flow cytometry. Therefore, cells were treated with different concentrations of compound 9 for 24 h, harvested, and then the ratio of living to dead cells was determined using propidium iodide (Fig 5).
Fig 5 Cytotoxicity of procyanidin C2 (9) in HEK293 cells. Cells were treated with 50, 150 or 300 μM of 9 in the growth medium for 24 h. Cells were harvested, resuspended in PBS buffer and incubated with propidium iodide (1 mg/mL) for 5 min on ice. 10,000 events were set for the number of living cells. The number of living cells was divided by the number of total cells counted and given as percentage of cell survival. Data represent means ± standard errors of the mean (n = 3).
Fig 7 A) Cytotoxicity of procyanidin B3 (8) in HEK293 cells. Cells were treated with 50, 75 or 100 μM of 8 in the growth medium for 24 h. Cells were harvested, resuspended in PBS buffer and incubated with propidium iodide (1 mg/mL) for 5 min on ice. 10,000 events were set for the number of living cells. The number of living cells was divided by the number of total cells counted and given as percentage of cell survival. Data represent means ± standard errors of the mean (n = 3). B) Wound healing abilities of PRL-1 or PRL-3 overexpressing or empty vector control HEK293 cell lines were analyzed in the presence of compound 8 or medium only. Cells were seeded at a concentration of 800,000 cells per insert and procyanidin B3 (8) was added at a concentration of 50 and 75 μM. Speed of migration is shown for combined data from different replicates, as mean ± SD (n = 40–77). Two-sided t-tests with Welsh correction were performed for p < 0.05. ns = not significant;***: < 0.001; **: < 0.01; *: < 0.05.
Flow cytometry was used to determine the ratio of living to dead cells compared to the control. HEK293 empty vector and PRL-3 overexpressing cells were seeded in a transparent 6-well plate with 400,000 cells/well in DMEM medium without Phenol red, supplemented with 10% FBS, 1% glutamine and 0.2% hygromycin and blasticidin. For induction of PRL-3 expression, 0.1% tetracycline was added. After 24 hours incubation at 37°C, procyanidins 8 or 9 dissolved in growth medium and growth medium as a control were added to the respective wells in the indicated final concentrations and incubated for another 24 hours. Then, the medium was removed and collected in Eppendorf tubes, centrifuged for 5 min at 500 rpm and the supernatant removed. Then 1 mL of PBS (10%) was added to each well and the cells detached with a cell scraper. […] After thorough mixing the cell suspension was injected into a LSR- Fortessa Bench Top Analyzer (Beckton Dickinson) and the number of living and dead cells counted. […] The number of living cells was divided by the number of total cells counted and given as percentage of cell survival.

VHR = molecular target: T1, VHR (Homo sapiens, UniProt P51452); assay: DiFMUP assay for PTP1B, TCPTP, VHR; type: biochemical; conditions: 12.5 μM, 30 min incubation, 20 μM DiFMUP, 50 nM enzyme
T1 construct: made in house
Protocol: (§1) As an extension of our studies we included PTP1B, VHR and TCPTB as examples for phosphotyrosine specific phosphatases in our activity studies, because tea extracts were reported to inhibit PTP1B [43]. For comparison with PRL-3, these proteins were used in the same concentration (50 nM) as PRL-3 and DiFMUP was also used as a substrate in 20 μM concentration. The enzymes were incubated with three different concentrations of procyanidin C2 (9) for 30 min before the measurement.
(§2) Fig 3 Effect of procyanidin C2 (9) on the phosphatase activity of VHR, PTP1B and TCPTP using DiFMUP as a substrate. Proteins were incubated with compound 9 for 30 min., phosphatase activity measurements were performed using 20 μM DiFMUP. Phosphatase activity in the absence of compound 9 was set as 100%. Data represent means ± standard errors of the mean (n = 3).
(§3) DiFMUP assay for PTP1B, TCPTP, VHR: In a final reaction volume of 100 μL the PTPs (50 nM final concentration) were incubated with […] of procyanidin C2 (9) for 30 minutes at 25°C. The buffer conditions were pH 7.2, 4-/2-Hydroxyethyl)-1-piperazineethanesulfonic acid (HEPES) 25 mM, EDTA 2.5 mM, DTT 2.0 mM, NaCl 124.4 mM. After the incubation time 20 μL DiFMUP was added to reach a final concentration of 20 μM. On a Tecan safire2 (Tecan, Salzburg, Austria) plate reader dephosphorylation of the substrate to its fluorescent product was monitored by following the emission at […] for 10 minutes. All measurements were done in triplicates, and the experiments were repeated at least three times. The slopes of the initial phases were obtained by linear regression of the data points. The normalized reaction rates were plotted versus the log of the inhibitor concentrations and the IC50 values were obtained by fitting the curves using the one site competition model of GraphPad Prism (GraphPad Software, Version 5). Due to the high water solubility of 9 DMSO was not required and measurements were done in assay buffer only.

TCPTP = molecular target: T2, TCPTP (Homo sapiens, UniProt P17706); assay: DiFMUP assay for PTP1B, TCPTP, VHR; type: biochemical; conditions: 12.5 μM, 30 min incubation, 20 μM DiFMUP, 50 nM enzyme
T2 construct: made in house
T2 sequence (P17706 1-415): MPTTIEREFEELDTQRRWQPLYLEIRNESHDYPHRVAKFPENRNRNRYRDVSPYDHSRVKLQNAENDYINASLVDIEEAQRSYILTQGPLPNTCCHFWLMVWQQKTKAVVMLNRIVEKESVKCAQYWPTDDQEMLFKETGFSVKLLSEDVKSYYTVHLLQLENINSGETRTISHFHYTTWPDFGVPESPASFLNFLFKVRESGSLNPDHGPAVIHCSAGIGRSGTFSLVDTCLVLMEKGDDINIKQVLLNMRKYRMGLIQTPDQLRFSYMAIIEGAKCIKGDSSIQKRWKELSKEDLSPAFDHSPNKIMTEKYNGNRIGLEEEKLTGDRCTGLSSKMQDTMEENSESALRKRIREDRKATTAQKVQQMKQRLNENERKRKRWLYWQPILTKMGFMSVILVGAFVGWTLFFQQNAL
Protocol: as §1, §2, §3

T1 sequence (P51452 whole entry, species assumed): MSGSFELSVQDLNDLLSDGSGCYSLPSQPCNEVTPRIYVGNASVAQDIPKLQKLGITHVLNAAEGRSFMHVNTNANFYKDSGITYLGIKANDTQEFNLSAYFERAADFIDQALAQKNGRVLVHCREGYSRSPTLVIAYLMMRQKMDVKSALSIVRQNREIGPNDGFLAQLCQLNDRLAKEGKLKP

SMILES | permeation (Caco-2 cell model) | viability at 24 h, 150 µM [1] | viability at 24 h, 300 µM [1] | VHR phosphatase activity compared to the control (VHR) | TCPTP phosphatase activity compared to the control (TCPTP)
Oc1cc(O)c2c(c1)O[C@H](c1ccc(O)c(O)c1)[C@@H](O)[C@@H]2c1c(O)cc(O)c2c1O[C@H](c1ccc(O)c(O)c1)[C@@H](O)C2 [Procyanidin B3 (8), Procyanidin B3] | up to 0.2% | – | – | – | –
Oc1cc(O)c2c(c1)O[C@H](c1ccc(O)c(O)c1)[C@@H](O)[C@@H]2c1c(O)cc(O)c2c1O[C@H](c1ccc(O)c(O)c1)[C@@H](O)[C@@H]2c1c(O)cc(O)c2c1O[C@H](c1ccc(O)c(O)c1)[C@@H](O)C2 [Procyanidin C2 (9), Procyanidin C2] | – | ~50% | ~50% | 75–85% | 75–85%

Reference: article PMC4520450, “Procyanidins Negatively Affect the Activity of the Phosphatases of Regenerating Liver” (PLoS ONE, 2015)
